Values quoted from earlier work in PMC6311893, “Computational prediction of plasma protein binding of cyclic peptides from small molecule experimental data using sparse modeling techniques” (BMC Bioinformatics, 2018).

Test system: plasma protein
Conditions: fraction bound to plasma protein; small molecule dataset, sheet 1-SM (Set Dte = test, Dtr = training); ref Ingle et al.; cited from earlier work

First: CC1(C)SC2C(NC(=O)C(F)c3cccc(N)c3)C(=O)N2C1C(=O)O (centres unmarked) [penicillin30]
Second: COc1cccc(OC)c1CC(=O)NC1C(=O)N2C1SC(C)(C)C2C(=O)O (centres unmarked) [penicillin18]
The “PPB (fb)” value of the first is lower: 0.26 for the first, 0.77 for the second.

First: COc1ccc(NS(=O)(=O)c2ccc(N)cc2)nn1 [sulfamethoxypyridazine]
Second: Cc1cc(C)nc(NS(=O)(=O)c2ccc(N)cc2)n1 [sulfadimidine]
The “PPB (fb)” value of the first is lower: 0.75 for the first, 0.85 for the second.

First: Nc1nc(=O)[nH]cc1F [Flucytosine]
Second: CCCc1cc(=O)[nH]c(=S)[nH]1 [Propylthiouracil]
The “PPB (fb)” value of the first is lower: 0.02 for the first, 0.81 for the second.

Compared with `CC(=O)c1ccc(S(=O)(=O)NC(=O)NC2CCCCC2)cc1` [acetohexamide], `CCOC(=O)[C@H](CCc1ccccc1)N[C@H]1CCCN2CCC[C@@H](C(=O)O)N2C1=O` [cilazapril] is lower in “PPB (fb)” value: 0.96 for the first, 0.25 for the second.

Compared with `Cc1cccc(C)c1OCC(=O)N[C@@H](Cc1ccccc1)[C@@H](O)C[C@H](Cc1ccccc1)NC(=O)[C@H](C(C)C)N1CCCNC1=O` [lopinavir], `CC(C)(C)c1ccc(C(=O)CCCN2CCC(OC(c3ccccc3)c3ccccc3)CC2)cc1` [ebastine] is lower in “PPB (fb)” value: 0.99 for the first, 0.98 for the second.

First: N=C(N)N1CCc2ccccc2C1 [debrisoquine]
Second: NC(=O)N1c2ccccc2CC(O)c2ccccc21 (centres unmarked) [10-hydroxycarbazepine]
The “PPB (fb)” value of the first is higher: 0.85 for the first, 0.62 for the second.

Going from `C=CC1=C(C(=O)O)N2C(=O)[C@@H](NC(=O)/C(=N\O)c3csc(N)n3)[C@H]2SC1` [cefdinir] to `CO/N=C(\C(=O)N[C@@H]1C(=O)N2C(C(=O)O)=C(COC(C)=O)CS[C@H]12)c1csc(N)n1` [Cefotaxime], the “PPB (fb)” value falls from 0.65 to 0.38.

First: CN[C@H]1CC[C@@H](c2ccc(Cl)c(Cl)c2)c2ccccc21 [sertraline]
Second: CN(C)CCC=C1c2ccccc2CCc2ccccc21 [Amitriptyline]
The “PPB (fb)” value of the first is higher: 0.98 for the first, 0.94 for the second.

Going from `CCN1CCCC1CNC(=O)c1cc(S(=O)(=O)CC)c(N)cc1OC` (centres unmarked) [amisulpride] to `COC(CC(=O)NC1C(=O)N2C1SC(C)(C)C2C(=O)O)c1ccc(Cl)s1` (centres unmarked) [penicillin75], the “PPB (fb)” value rises from 0.16 to 0.84.

Going from `CC(C)NCC(O)COc1ccc(COCCOC(C)C)cc1` (centres unmarked) [Bisoprolol] to `Cc1cc2c(OCC(CNC(C)(C)C)OC(=O)c3ccccc3)cccc2[nH]1` (centres unmarked) [bopindolol], the “PPB (fb)” value rises from 0.32 to 0.65.

First: Clc1ccc(COC(Cn2ccnc2)c2ccc(Cl)cc2Cl)c(Cl)c1 (centres unmarked) [miconazole]
Second: Cc1cc(CC(=O)O)n(C)c1C(=O)c1ccc(Cl)cc1 [zomepirac]
The “PPB (fb)” value of the first is lower: 0.95 for the first, 0.98 for the second.

Compared with `Nc1ccc(S(=O)(=O)Nc2ccnn2-c2ccccc2)cc1` [sulfaphenazole], `NC(=O)N1c2ccccc2C=Cc2ccccc21` [carbamazepine] is lower in “PPB (fb)” value: 0.95 for the first, 0.75 for the second.

Compared with `NCCCC(N)(C(=O)O)C(F)F` (centres unmarked) [eflornithine], `N[C@@H](C(=O)N[C@@H]1C(=O)N2C(C(=O)O)=C(Cl)CS[C@H]12)c1ccccc1` [cefaclor] is higher in “PPB (fb)” value: 0 for the first, 0.25 for the second.

In the case of `CN1C(C(=O)Nc2ccccn2)=C(O)c2sccc2S1(=O)=O` [Tenoxicam], the “PPB (fb)” value is given as 0.99.

Same assay, conditions: fraction bound to plasma protein; small molecule dataset, sheet 1-SM, Set Dtr; ref Ingle et al.; cited from earlier work

Compared with `CS(=O)(=O)OCCCCOS(C)(=O)=O` [Busulphan], `CN(CCOc1ccc(NS(C)(=O)=O)cc1)CCc1ccc(NS(C)(=O)=O)cc1` [Dofetilide] is higher in “PPB (fb)” value: 0.04 for the first, 0.64 for the second.

First: CN1CC[C@H](c2c(O)cc(O)c3c(=O)cc(-c4ccccc4Cl)oc23)[C@H](O)C1 [Flavopiridol]
Second: Cc1ccccc1N1C(=O)c2cc(S(N)(=O)=O)c(Cl)cc2NC1C (centres unmarked) [Metolazone]
The “PPB (fb)” value of the first is lower: 0.94 for the first, 0.95 for the second.

Going from `O=C1CC[C@@]2(O)[C@H]3Cc4ccc(O)c5c4[C@@]2(CCN3CC2CC2)[C@H]1O5` [Naltrexone] to `C=CCN1CC[C@]23c4c5ccc(O)c4O[C@H]2C(=O)CC[C@@]3(O)[C@H]1C5` [Naloxone], the “PPB (fb)” value rises from 0.2 to 0.45.

Compared with `Cc1onc(-c2ccccc2)c1-c1ccc(S(N)(=O)=O)cc1` [valdecoxib], `O=C(O)c1cc(-c2ccc(F)cc2F)ccc1O` [Diflunisal] is higher in “PPB (fb)” value: 0.98 for the first, 0.99 for the second.

First: COc1cccc2c1C(=O)c1c(O)c3c(c(O)c1C2=O)C[C@@](O)(C(=O)CO)C[C@@H]3O[C@H]1C[C@H](N)[C@H](O)[C@H](C)O1 [Doxorubicin]
Second: Cc1c(C)c2c(c(C)c1O)CCC(C)(COc1ccc(CC3SC(=O)NC3=O)cc1)O2 (centres unmarked) [troglitazone]
The “PPB (fb)” value of the first is lower: 0.73 for the first, 0.99 for the second.

First: Cc1ccnc2c1NC(=O)c1cccnc1N2C1CC1 [Nevirapine]
Second: O=C(NC1CCN(CCc2c[nH]c3ccccc23)CC1)c1ccccc1 [Indoramin]
The “PPB (fb)” value of the first is lower: 0.64 for the first, 0.83 for the second.

Compared with `CC1(C)S[C@@H]2[C@H](NC(=O)[C@H](NC(=O)N3CCN(S(C)(=O)=O)C3=O)c3ccccc3)C(=O)N2[C@H]1C(=O)O` [Mezlocillin], `C/C=C/C1=C(C(=O)O)N2C(=O)C(NC(=O)C(N)c3ccc(O)cc3)C2SC1` (centres unmarked) [Cefprozil] is higher in “PPB (fb)” value: 0.31 for the first, 0.38 for the second.

First: CC(=O)Oc1ccccc1C(=O)O [Aspirin]
Second: CC1CCCC(C)N1CCCC(O)(c1ccccc1)c1ccccn1 (centres unmarked) [Pirmenol]
The “PPB (fb)” value of the first is lower: 0.43 for the first, 0.87 for the second.

Going from `Cc1cccc(C)c1NC(=O)NCCCNC(C)C` [Recainam] to `CC(C)NCC(O)COc1ccc(CCOCC2CC2)cc1` (centres unmarked) [Betaxolol], the “PPB (fb)” value rises from 0.14 to 0.56.

First: CN1CCN(CCCN2c3ccccc3Sc3ccc(C(F)(F)F)cc32)CC1 [trifluoperazine]
Second: Nc1ccn([C@H]2CC[C@@H](CO)O2)c(=O)n1 [zalcitabine]
The “PPB (fb)” value of the first is higher: 0.99 for the first, 0.03 for the second.

First: O=C(O)[C@H]1/C(=C/CO)O[C@@H]2CC(=O)N21 [Clavulanic Acid]
Second: CO/N=C(\C(=O)N[C@@H]1C(=O)N2C(C(=O)O)=C(C)CS[C@H]12)c1csc(N)n1 [Cefetamet]
The “PPB (fb)” value of the first is lower: 0.09 for the first, 0.22 for the second.

First: COc1cc2c(cc1O)CCNC21CSC2c3c(OC(C)=O)c(C)c4c(c3C(COC1=O)N1C(O)C3Cc5cc(C)c(OC)c(O)c5C(C21)N3C)OCO4 (centres unmarked) [Trabectedin (ET-743__ Yondelis)]
Second: C[C@H](CCC(=O)O)[C@H]1CC[C@H]2[C@@H]3[C@@H](O)C[C@@H]4C[C@H](O)CC[C@]4(C)[C@H]3CC[C@]12C [ursodiol]
The “PPB (fb)” value of the first is lower: 0.94 for the first, 0.97 for the second.

First: CN1C(=O)OC(C)(C)C1=O [trimethadione]
Second: CC1(C)O[C@@H]2[C@@H](CO[C@@]3(COS(N)(=O)=O)OC(C)(C)O[C@@H]23)O1 [topiramate]
The “PPB (fb)” value of the first is lower: 0 for the first, 0.15 for the second.

Going from `Nc1nc(NC2CC2)c2ncn([C@H]3C=C[C@@H](CO)C3)c2n1` [Abacavir] to `CC(=O)Nc1nnc(S(N)(=O)=O)s1` [Acetazolamide], the “PPB (fb)” value rises from 0.5 to 0.92.

Same assay, conditions: fraction bound to plasma protein; small molecule dataset, sheet 1-SM; ref Ingle et al.; cited from earlier work

First: O=C(OC1Cc2c(O)cc(O)cc2OC1c1cc(O)c(O)c(O)c1)c1cc(O)c(O)c(O)c1 (centres unmarked) [Epigallocatechin gallate]
Second: O=C(O)c1cc(/N=N/c2ccc(O)c(C(=O)O)c2)ccc1O [olsalazine]
The “PPB (fb)” value of the first is lower: 0.91 for the first, 0.99 for the second.

First: COc1cc(/C=C/C(=O)O)ccc1O [ferulic acid]
Second: N[C@@H](Cc1cc(I)c(Oc2ccc(O)c(I)c2)c(I)c1)C(=O)O [liothyronine]
The “PPB (fb)” value of the first is lower: 0.73 for the first, 0.98 for the second.

First: CCCC(CCC)C(=O)O [Valproic Acd]
Second: CCN(CC)CCOC(=O)c1ccc(N)cc1 [procaine]
The “PPB (fb)” value of the first is higher: 0.9 for the first, 0.06 for the second.

Going from `CC/C(=C(\c1ccccc1)c1ccc(OCCN(C)C)cc1)c1ccccc1` [tamoxifen] to `CCCCC1C(=O)N(c2ccccc2)N(c2ccccc2)C1=O` [phenylbutazone], the “PPB (fb)” value falls from 0.99 to 0.98.

First: C[C@]1(Cn2ccnn2)[C@H](C(=O)O)N2C(=O)C[C@H]2S1(=O)=O [tazobactam]
Second: CC1(C)SC2C(NC(=O)C(N)c3cccc(O)c3)C(=O)N2C1C(=O)O (centres unmarked) [penicillin32]
The “PPB (fb)” value of the first is higher: 0.23 for the first, 0.17 for the second.

Going from `CC(C)Cc1ccc(C(C)C(=O)NCCOCCO)cc1` (centres unmarked) [JMC_08] to `CCOc1ccccc1OCCN[C@H](C)Cc1ccc(OC)c(S(N)(=O)=O)c1` [Tamsulosin], the “PPB (fb)” value rises from 0.83 to 0.97.

First: OCc1cc(C(O)CNCCCCCCOCCCCc2ccccc2)ccc1O (centres unmarked) [salmeterol]
Second: CCCCC1C(=O)N(c2ccccc2)N(c2ccc(O)cc2)C1=O (centres unmarked) [oxyphenbutazone]
The “PPB (fb)” value of the first is lower: 0.96 for the first, 0.99 for the second.

Going from `COc1ccccc1Oc1c(NS(=O)(=O)c2ccc(C(C)C)cn2)nc(-c2ccnc(-c3nnn[nH]3)c2)nc1OCCO` [Tezosentan] to `CN(c1nccc(=O)[nH]1)C1CCN(c2nc3ccccc3n2Cc2ccc(F)cc2)CC1` [mizolastine], the “PPB (fb)” value falls from 0.99 to 0.98.

Going from `Oc1ccc(C2CNCCc3c2cc(O)c(O)c3Cl)cc1` (centres unmarked) [fenoldopam] to `CC1Cc2ccccc2N1NC(=O)c1ccc(Cl)c(S(N)(=O)=O)c1` (centres unmarked) [indapamide], the “PPB (fb)” value falls from 0.88 to 0.76.

First: O=C(NCCO[N+](=O)[O-])c1cccnc1 [nicorandil]
Second: CCN(CC)CCNC(=O)c1ccc(NS(C)(=O)=O)cc1 [Sematilide]
The “PPB (fb)” value of the first is higher: 0.25 for the first, 0.04 for the second.

Compared with `CC1=C(CC(=O)O)c2cc(F)ccc2/C1=C\c1ccc([S+](C)[O-])cc1` (centres unmarked) [sulindac], `CCOC(=O)c1c(N)sc2c1CCN(Cc1ccccc1)C2` [Tinoridine] is lower in “PPB (fb)” value: 0.93 for the first, 0.92 for the second.

For `CCCN[C@H]1CCc2nc(N)sc2C1` [pramipexole], the “PPB (fb)” value is given as 0.15.

Same assay, conditions: plasma; cited from earlier work

First: CNC(C)Cc1ccc2c(c1)OCO2 (centres unmarked) [methylenedioxymethamphetamine]
Second: COc1cccc(C2(O)CCCCC2CN(C)C)c1 (centres unmarked) [Tramadol]
The “PPB (fb)” value of the first is higher: 0.65 for the first, 0.16 for the second.

Compared with `C[C@]12CC[C@H]3[C@@H](CCC4=CC(=O)CC[C@@]43C)[C@@H]1CC[C@@H]2O` [Testosterone], Rifabutin is higher in “PPB (fb)” value: 0.6 for the first, 0.76 for the second.

Compared with `CNC(C)C1CCC(N)C(OC2C(N)CC(N)C(OC3OCC(C)(O)C(NC)C3O)C2O)O1` (centres unmarked) [Gentamicin], `O=NN(CCCl)C(=O)NCCCl` [Carmustine (BCNU)] is higher in “PPB (fb)” value: 0.1 for the first, 0.77 for the second.

norgestimate and nilvadipine are the same in “PPB (fb)” value: 0.99 for the first, 0.99 for the second.

manidipine and Tolcapone are the same in “PPB (fb)” value: 0.99 for the first, 0.99 for the second.

In the case of Atovaquone, the “PPB (fb)” value is given as 1.
